Reference: patent US20240368667A1, “RAPID, LABEL-FREE ANTIBIOTIC SUSCEPTIBILITY OF BACTERIA DIRECTLY FROM POSITIVE BLOOD OR BODILY FLUID/CULTURE” (priority 2021, published 2024)
Converted amounts (≈) assume the structure as drawn.

What was measured:
E. coli [1] = experiment: Direct flow cytometric AST (high-throughput flow cytometry, HTFC) of sucrose-recovered bacteria; assay type: cell-based, Escherichia coli; set-up: key to susceptibility classification, HTFC: (S) sensitive; (I) intermediate; (R) resistant; settings: for susceptibility classification, HTFC / MIC: sucrose-recovered, antibiotic 4 hours (37° C.); for MIC: Escherichia coli, 4 h, read-out: Minimum inhibitory concentration, HTFC
Experimental: (§1) AST workflow using bacteria recovered directly from positive blood culture. A 1-mL aliquot of bacteria recovered using separation method 2 was diluted 10-fold in CAMHB, the OD600 adjusted to ˜0.01, and a 50 μL aliquot distributed into each well of a 96-well plate containing CAMHB with and without ceftazidime, tobramycin, and either meropenem (E. coli and P. aeruginosa) or oxacillin (S. aureus). Following Clinical and Laboratory Standards Institute (CLSI) guidelines^33, 2% sodium chloride (NaCl) was present in wells containing oxacillin to assist in the detection of methicillin-resistant S. aureus (MRSA). […] To account for observed differences in doubling and lag times, E. coli and P. aeruginosa were incubated for 4 hours at 37° C., while S. aureus was incubated for 9 hours at 35° C. After incubation, antibiotic plates were removed from the incubator and directly stored on ice (i.e. no post-processing) until high-throughput flow cytometry (BD LSRFortessa with HTS-system, BD, Franklin Lakes, NJ). No-antibiotic controls and antibiotic-treated samples were handled identically.
(§2) MIC Determination by flow cytometry. Because antibiotic effects are observed in both the position of scatter signatures (morphology changes) and count rates (growth inhibition), a modified count rate, accounting for scatter position, was used to evaluate susceptibility. Briefly, no-antibiotic control populations (triplicate) were pooled, binned, and a convex hull boundary set at 1-standard deviation above the background (not including bins with zero counts) was drawn. […] The overlap ratio, measuring changes in morphology, was then computed by dividing the number of sample events within the no-antibiotic control boundary by the total number of events within the sample. As an increase in count rate attributed to viable bacteria in antibiotic-treated samples is not scientifically meaningful, the fractional overlap was multiplied by the minimum of the control and sample count rates to generate a modified count rate accounting for antibiotic-induced morphological changes. All modified count rates were normalized by the average of the no-antibiotic controls. For automatic MIC determination, normalized count rates corresponding to n (index of predicted MIC), n+1, n+2 were iteratively fit to a linear function with a frameshift of n+1 between iterations (FIGS. 8 and 9). […] A threshold of −0.01 instead of zero was used to mitigate the influence of small fluctuations in normalized count rates on susceptibility determinations.

E. coli [2] = experiment: Broth microdilution (BMD) MIC; assay type: cell-based, Escherichia coli; set-up: key to susceptibility classification, BMD: (S) sensitive; (I) intermediate; (R) resistant; settings: for MIC: Escherichia coli
Experimental: (§3) Microbroth dilution for minimum inhibitory concentrations (MIC) with and without sucrose recovery. To isolate bacteria without sucrose, culture media from positive BacT/alert FA PLUS aerobic culture bottles (bioMérieux, Durham, NC) was serially diluted and plated onto LB agar (Lennox; Sigma-Aldrich, St. Louis, MO). Bacterial suspensions were prepared by resuspending colonies in CAMHB with incubation on a MaxQ 4000 incubator shaker (Thermo Fisher Scientific, Waltham, MA) at 37° C. and ˜225 rpm for 3 hours. Bacteria recovered via Method 2 were diluted 10-fold in CAMHB. Following incubation or sucrose recovery and dilution, bacterial suspensions were adjusted to ˜0.004 OD600 with CAMHB and a 50-μL aliquot distributed to each well of a 96-well plate containing CAMHB with and without clinically relevant antibiotics (2-fold dilution series). Gram-negative plates included: ceftazidime (3rd generation cephalosporin, RPI corp., Mount Prospect, IL), cefepime (4th generation cephalosporin, Chem-Impex Int'l, Wood Dale, IL), meropenem (carbapenem, Tokyo Chemical Industry, Tokyo, Japan), levofloxacin (quinolone, Alfa Aesar, Haverhill, MA), and tobramycin (aminoglycoside, MP Biomedicals LLC, Santa Ana, CA), while S. aureus plates contained: oxacillin (beta-lactam, Sigma-Aldrich, St. Louis, MO), vancomycin (glycopeptide, Santa Cruz Biotechnology, Dallas, TX), erythromycin (macrolide, Sigma-Aldrich, St. Louis, MO), clindamycin ([…]), and ciprofloxacin (fluoroquinolone, Sigma-Aldrich, St. Louis, MO). Antibiotic plates were incubated at 37° C. for 16-20 hours (gram-negative) or 35° C. for 24 hours (S. aureus), at which time, plates were removed from the incubator and visually inspected for bacterial growth. The MIC was set at the lowest antibiotic concentration at which no growth was detected.

P. aeruginosa [3] = experiment: Direct flow cytometric AST (high-throughput flow cytometry, HTFC) of sucrose-recovered bacteria; assay type: cell-based, Pseudomonas aeruginosa; set-up: key to susceptibility classification, HTFC: (S) sensitive; (I) intermediate; (R) resistant; settings: for MIC: Pseudomonas aeruginosa, read-out: Minimum inhibitory concentration, HTFC
Experimental: as §1, §2

P. aeruginosa [4] = experiment: Broth microdilution (BMD) MIC; assay type: cell-based, Pseudomonas aeruginosa; set-up: key to susceptibility classification, BMD: (S) sensitive; (I) intermediate; (R) resistant; settings: broth microdilution; for MIC: Pseudomonas aeruginosa, read-out: Minimum inhibitory concentration, BMD
Experimental: as §3

## NC[C@H]1O[C@H](O[C@H]2[C@H](O)[C@@H](O[C@H]3O[C@H](CO)[C@@H](O)[C@H](N)[C@H]3O)[C@H](N)C[C@@H]2N)[C@H](N)C[C@@H]1O [Tobramycin, tobramycin]
E. coli [1]; E. coli Blood Culture A
  susceptibility classification, HTFC: (S)
  MIC: 0.25 µg/mL (≈ 0.535 µM)
E. coli [1]; E. coli Blood Culture B
  susceptibility classification, HTFC: (S)
  MIC: 4 µg/mL (≈ 8.56 µM)
E. coli [1]; E. coli EC37
  susceptibility classification, HTFC: (S)
  MIC: 0.25 µg/mL (≈ 0.535 µM)
E. coli [1]; E. coli EC-bank
  susceptibility classification, HTFC: (S)
  MIC: ≤ 0.125 µg/mL
E. coli [1]; E. coli Mu76
  susceptibility classification, HTFC: (S)
  MIC: 0.5 µg/mL (≈ 1.07 µM)
E. coli [1]; E. coli Mu218
  susceptibility classification, HTFC: (R)
  MIC: 16 µg/mL (≈ 34.2 µM)
E. coli [1]; E. coli Mu890
  susceptibility classification, HTFC: (S)
  MIC: 0.5 µg/mL (≈ 1.07 µM)
E. coli [1]; E. coli, strain not named (FIG. 14), concentrations ≥0.25 μg/mL, no-antibiotic control ~11,000 evts/s
  flow cytometric count rate: ≥ 100 evts/s
E. coli [2]; E. coli Blood Culture A, broth microdilution
  susceptibility classification, BMD: (S)
E. coli [2]; E. coli Blood Culture B, broth microdilution
  susceptibility classification, BMD: (I)
E. coli [2]; E. coli EC37, broth microdilution
  susceptibility classification, BMD: (S)
E. coli [2]; E. coli EC-bank, broth microdilution
  susceptibility classification, BMD: (S)
E. coli [2]; E. coli Mu76, broth microdilution
  susceptibility classification, BMD: (S)
E. coli [2]; E. coli Mu218, broth microdilution
  susceptibility classification, BMD: (R)
E. coli [2]; E. coli Mu890, broth microdilution
  susceptibility classification, BMD: (S)
E. coli [2]; E. coli Blood Culture A, broth microdilution, read-out: Minimum inhibitory concentration, BMD
  MIC: 1 µg/mL (≈ 2.14 µM)
E. coli [2]; E. coli Blood Culture B, broth microdilution, read-out: Minimum inhibitory concentration, BMD
  MIC: 8 µg/mL (≈ 17.1 µM)
E. coli [2]; E. coli EC37, broth microdilution, read-out: Minimum inhibitory concentration, BMD
  MIC: 0.25 µg/mL (≈ 0.535 µM)
E. coli [2]; E. coli EC-bank, broth microdilution, read-out: Minimum inhibitory concentration, BMD
  MIC: 0.5 µg/mL (≈ 1.07 µM)
E. coli [2]; E. coli Mu76, broth microdilution, read-out: Minimum inhibitory concentration, BMD
  MIC: 0.5 µg/mL (≈ 1.07 µM)
E. coli [2]; E. coli Mu218, broth microdilution, read-out: Minimum inhibitory concentration, BMD
  MIC: 32 µg/mL (≈ 68.4 µM)
E. coli [2]; E. coli Mu890, broth microdilution, read-out: Minimum inhibitory concentration, BMD
  MIC: 0.5 µg/mL (≈ 1.07 µM)
E. coli [2]; E. coli, strain not named (FIG. 14), read-out: MIC as determined by BMD
  MIC: 0.25 µg/mL (≈ 0.535 µM)
P. aeruginosa [3]; P. aeruginosa Blood Culture B, antibiotic 4 hours (37° C.)
  susceptibility classification, HTFC: (S)
P. aeruginosa [3]; P. aeruginosa Blood Culture C, antibiotic 4 hours (37° C.)
  susceptibility classification, HTFC: S
P. aeruginosa [3]; P. aeruginosa PA7, antibiotic 4 hours (37° C.)
  susceptibility classification, HTFC: (R)
P. aeruginosa [3]; P. aeruginosa PA46, antibiotic 4 hours (37° C.)
  susceptibility classification, HTFC: (S)
P. aeruginosa [3]; P. aeruginosa PA49, antibiotic 4 hours (37° C.)
  susceptibility classification, HTFC: (S)
P. aeruginosa [3]; P. aeruginosa PA81, antibiotic 4 hours (37° C.)
  susceptibility classification, HTFC: (S)
P. aeruginosa [3]; P. aeruginosa PAO1, antibiotic 4 hours (37° C.)
  susceptibility classification, HTFC: (S)
P. aeruginosa [3]; 4 h, P. aeruginosa Blood Culture B, antibiotic 4 hours (37° C.)
  MIC: 0.25 µg/mL (≈ 0.535 µM)
P. aeruginosa [3]; 4 h, P. aeruginosa PA7, antibiotic 4 hours (37° C.)
  MIC: > 16 µg/mL
P. aeruginosa [3]; 4 h, P. aeruginosa PA46, antibiotic 4 hours (37° C.)
  MIC: 1 µg/mL (≈ 2.14 µM)
P. aeruginosa [3]; 4 h, P. aeruginosa PA49, antibiotic 4 hours (37° C.)
  MIC: 1 µg/mL (≈ 2.14 µM)
P. aeruginosa [3]; 4 h, P. aeruginosa PA81, antibiotic 4 hours (37° C.)
  MIC: 1 µg/mL (≈ 2.14 µM)
P. aeruginosa [3]; PAO1, 4 h, P. aeruginosa PAO1, antibiotic 4 hours (37° C.)
  MIC: 2 µg/mL (≈ 4.28 µM)
P. aeruginosa [4]; P. aeruginosa Blood Culture B
  susceptibility classification, BMD: (S)
  MIC: 2 µg/mL (≈ 4.28 µM)
P. aeruginosa [4]; P. aeruginosa Blood Culture C
  susceptibility classification, BMD: (S)
  MIC: ≤ 0.125 µg/mL
P. aeruginosa [4]; P. aeruginosa PA7
  susceptibility classification, BMD: (R)
  MIC: > 64 µg/mL
P. aeruginosa [4]; P. aeruginosa PA46
  susceptibility classification, BMD: (S)
  MIC: 0.5 µg/mL (≈ 1.07 µM)
P. aeruginosa [4]; P. aeruginosa PA49
  susceptibility classification, BMD: (S)
  MIC: 0.5 µg/mL (≈ 1.07 µM)
P. aeruginosa [4]; P. aeruginosa PA81
  susceptibility classification, BMD: (S)
  MIC: 0.5 µg/mL (≈ 1.07 µM)
P. aeruginosa [4]; P. aeruginosa PAO1
  susceptibility classification, BMD: (S)
P. aeruginosa [4]; PAO1, P. aeruginosa PAO1
  MIC: 0.5 µg/mL (≈ 1.07 µM)
